Measurements: patent US9682977B2, “Bicyclic heteroaryl indole analogues useful as ROR gamma modulators” (Glenmark Pharmaceuticals S.A., priority 2013, dated 2017)
Where two headings read alike, the source gives them in different places.

Target: T1, GST-tagged ROR gamma ligand binding domain (LBD) (Homo sapiens, UniProt P51449)
T1 construct: purchased Invitrogen
T1 sequence (P51449 269-508 limits assumed): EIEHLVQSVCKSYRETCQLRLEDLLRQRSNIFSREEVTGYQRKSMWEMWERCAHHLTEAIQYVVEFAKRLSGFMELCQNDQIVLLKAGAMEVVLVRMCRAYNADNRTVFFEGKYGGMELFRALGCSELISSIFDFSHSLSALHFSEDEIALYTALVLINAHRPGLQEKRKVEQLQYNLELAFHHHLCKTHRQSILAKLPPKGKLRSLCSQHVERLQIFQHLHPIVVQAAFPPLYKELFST
Assay: TR-FRET assay for ROR gamma (Lantha Screen, co-activator peptide recruitment)
Assay type: biochemical
Settings: for IC50: class symbols, from dose response curve, read-out: IC50 value; for inhibition at 1 µM: read-out: % inhibition at 1 μM; for inhibition at 10 µM: read-out: % inhibition at 10 μM

[1] = compound concentration 1 μM, TR-FRET ratio 520/495, percent of control
[2] = compound concentration 10 μM, TR-FRET ratio 520/495, percent of control

Q: For `O=C(O)c1ccc(-n2nc(C(=O)c3c(Cl)cccc3Cl)c3cccnc32)cc1` [Example 36, 4-{3-[(2,6-Dichlorophenyl)carbonyl]-1H-pyrazolo[3,4-b]pyridin-1-yl}benzoic acid], which IC50 is on record?
A: Its IC50 is < 50 nM.

Q: And the inhibition at 1 µM [1]?
A: The inhibition at 1 µM was 95.7%.

Q: What about the inhibition at 10 µM [2] of the same compound?
A: Its inhibition at 10 µM is 96.4%.

Q: For `O=C(O)c1ccc(-n2nc(C(=O)c3c(Cl)cccc3C3CC3)c3cccnc32)cc1` [Example 37, 4-{3-[(2-Chloro-6-cyclopropylphenyl)carbonyl]-1H-pyrazolo[3,4-b]pyridin-1-yl}benzoic acid], which IC50 is on record?
A: Its IC50 is < 50 nM.

Q: And the inhibition at 1 µM [1]?
A: The inhibition at 1 µM was 97.6%.

Q: And the inhibition at 10 µM [2]?
A: The inhibition at 10 µM was 94.6%.

Q: Which IC50 does the source give for `O=C(O)c1ccc(-n2nc(C(=O)c3c(Cl)cccc3C(F)(F)F)c3cccnc32)cc1` [Example 38, 4-(3-{[2-Chloro-6-(trifluoromethyl)phenyl]carbonyl}-1H-pyrazolo[3,4-b]pyridin-1-yl)benzoic acid] here?
A: The IC50 was < 50 nM.

Q: What about the inhibition at 1 µM [1] of the same compound?
A: Its inhibition at 1 µM is 96.8%.

Q: What about the inhibition at 10 µM [2] of the same compound?
A: Its inhibition at 10 µM is 93.5%.

Q: What does the source list for `CCOC(=O)c1ccc(-n2cc(C(=O)c3c(Cl)cccc3Cl)c3ccccc32)c(F)c1` [Example 39, Ethyl 4-{3-[(2,6-dichlorophenyl)carbonyl]-1H-indol-1-yl}-3-fluorobenzoate]?
A: inhibition at 1 µM: 15.4%; inhibition at 10 µM: 25%

Q: For `CCCOC(=O)c1ccc(-n2cc(C(=O)c3c(Cl)cccc3Cl)c3ccccc32)c(F)c1` [Example 40, Propyl 4-{3-[(2,6-dichlorophenyl)carbonyl]-1H-indol-1-yl}-3-fluorobenzoate], which inhibition at 1 µM is on record?
A: The inhibition at 1 µM was 9.11%.

Q: Which inhibition at 1 µM does the source give for `CCCCOC(=O)c1ccc(-n2cc(C(=O)c3c(Cl)cccc3Cl)c3ccccc32)c(F)c1` [Example 41, Butyl 4-{3-[(2,6-dichlorophenyl)carbonyl]-1H-indol-1-yl}-3-fluorobenzoate] here?
A: Its inhibition at 1 µM is 5.13%.

Q: With `CCOC(=O)c1ccc(-n2cc(C(=O)c3c(Cl)cccc3Cl)c3cccc(F)c32)c(F)c1` [Example 42, Ethyl 4-[3-(2,6-dichloro-benzoyl)-7-fluoro-1H-indol-1-yl]-3-fluorobenzoate] as the compound, how does the inhibition at 1 µM read?
A: The inhibition at 1 µM was 0.61%.

Q: Which inhibition at 1 µM does the source give for `CCCOC(=O)c1ccc(-n2cc(C(=O)c3c(Cl)cccc3Cl)c3cccc(F)c32)c(F)c1` [Example 43, Propyl 4-[3-(2,6-dichloro-benzoyl)-7-fluoro-1H-indol-1-yl]-3-fluorobenzoate] here?
A: The inhibition at 1 µM was 6.99%.

Q: What about the inhibition at 10 µM of the same compound?
A: The inhibition at 10 µM was 1.02%.

Q: How did the inhibition at 1 µM turn out when `CCCCOC(=O)c1ccc(-n2cc(C(=O)c3c(Cl)cccc3Cl)c3cccc(F)c32)c(F)c1` [Example 44, Butyl 4-[3-(2,6-dichloro-benzoyl)-7-fluoro-1H-indol-1-yl]-3-fluorobenzoate] was run?
A: The inhibition at 1 µM was 3.55%.

Q: What about the inhibition at 10 µM of the same compound?
A: Its inhibition at 10 µM is 2.25%.

Q: With `CCOC(=O)c1ccc(-n2nc(Oc3c(Cl)cccc3C(F)(F)F)c3ccccc32)c(F)c1` [Example 45, Ethyl 4-{3-[2-chloro-6-(trifluoromethyl)phenoxy]-1H-indazol-1-yl}-3-fluorobenzoate] as the compound, how does the IC50 read?
A: The IC50 was 50 to 100 nM.

Q: And the inhibition at 1 µM [1]?
A: Its inhibition at 1 µM is 97.9%.

Q: What about the inhibition at 10 µM [2] of the same compound?
A: The inhibition at 10 µM was 93.7%.

Q: Which inhibition at 1 µM [1] does the source give for `CCCOC(=O)c1ccc(-n2nc(Oc3c(Cl)cccc3C(F)(F)F)c3ccccc32)c(F)c1` [Example 46, Propyl 4-{3-[2-chloro-6-(trifluoromethyl)phenoxy]-1H-indazol-1-yl}-3-fluorobenzoate] here?
A: Its inhibition at 1 µM is 10.9%.

Q: What about the inhibition at 10 µM [2] of the same compound?
A: Its inhibition at 10 µM is 28.5%.

Q: With `CCCCOC(=O)c1ccc(-n2nc(Oc3c(Cl)cccc3C(F)(F)F)c3ccccc32)c(F)c1` [Example 47, Butyl 4-{3-[2-chloro-6-(trifluoromethyl)phenoxy]-1H-indazol-1-yl}-3-fluorobenzoate] as the compound, how does the inhibition at 1 µM [1] read?
A: The inhibition at 1 µM was 52%.

Q: And the inhibition at 10 µM [2]?
A: The inhibition at 10 µM was 91.9%.

Q: Which results are given for `CC(C)OC(=O)c1ccc(-n2nc(Oc3c(Cl)cccc3C(F)(F)F)c3ccccc32)c(F)c1` [Example 48, Isopropyl 4-{3-[2-chloro-6-(trifluoromethyl)phenoxy]-1H-indazol-1-yl}-3-fluorobenzoate]?
A: inhibition at 1 µM [1]: 26.3%; inhibition at 10 µM [2]: 84.6%
